Data taken from ChEMBL document CHEMBL2331207, “A novel fluorogenic substrate for dinuclear Zn(II)-containing metallo-β-lactamases” (Bioorg Med Chem Lett, 2013).

Key:
[1] = Activity at metallo-beta-lactamase L1 (unknown origin) by fluorescence spectrum analysis
[2] = Activity at beta-lactamase type 2 (unknown origin) by fluorescence spectrum analysis
[3] = Activity at metallo-beta-lactamase L1 (unknown origin) by UV-vis spectrophotometry analysis
[4] = Activity at beta-lactamase type 2 (unknown origin) by UV-vis spectrophotometry analysis

Structure (SMILES): O=C(O)C1=C(CSc2ccc(NC(=O)c3cc4ccccc4oc3=O)cc2)CS[C@@H]2[C@H](NC(=O)c3cc4ccccc4oc3=O)C(=O)N12
- Km [1]: 18 µM
- kcat [1]: 5 s⁻¹
- Km [2]: 11 µM
- kcat [2]: 17 s⁻¹
- Km [3]: 13 µM
- kcat [3]: 5 s⁻¹
- Km [4]: 18 µM
- kcat [4]: 12 s⁻¹
